Patent publication US20240408175A1, “BMP9 OR AN AGONIST THEREOF AND ITS USES RELATED TO REDUCING METASTASIS OF CANCER” (THE UAB RESEARCH FOUNDATION, priority 2021, published 2024)
Residues, ends and D or L forms follow the SMILES beside them. *: point of attachment. Cbz = O=C(OCc1ccccc1)*

Key:
[1] = tested on: SOX2; experiment: SOX2 expression by Western blot / qRT-PCR in cancer cells; assay type: cell-based, human; settings: for recovery in SOX2 repression by BMP2: PA1, 1 h pretreatment (5 μM DM, 3 μM ML347); for recovery in SOX2 repression by BMP2 / effect on SOX2 repression by BMP2: then BMP2 24 h; for effect on SOX2 repression by BMP9: 1 h pretreatment (5 μM SB431542, 3 μM ML347, 0.8 μM LDN193189), then BMP9 24 hours; for effect on SOX2 repression by BMP2: PA1, 1 h pretreatment (5 μM SB431542, 0.8 μM LDN193189); for SOX2 protein and mRNA expression: attached and anchorage-independent conditions; for SOX2 protein and RNA levels: 10 nM, 24 hours, PA1 (and OVCAR3) cells
Protocol: Lysate and RNA preparation: 100,000-300,000 cells were seeded in a poly-HEMA coated 6-well plate for indicated times in full serum unless indicated otherwise. Cells were collected by centrifugation and lysed with trizol for RNA extraction or direct 2× lysis buffer for protein lysates.
Xenograft data were analyzed using parametric statistics as described in the legends. Survival curves were analyzed with log-rank statistics. In vitro experiments were analyzed using parametric statistics (ANOVA global test with Dunnett's/Sidak multiple comparison test as post-hoc tests as applicable and described in legend) and presented as the mean±SEM. All real time PCR's are relative semi quantitative RT-PCR's (hereby referred to as qRT-PCR) and are a combined quantitation of a minimum of 3 independent biological trials assayed in triplicate with biological replicates represented as individual scatter dots in the graphs or as indicated in legends. In all cases, statistical significance was set at a threshold of p<0.05. All statistical analyses were conducted with GraphPad Prism Software Ver. 9.0 and specific statistical test information described in figure legends.

[2] = tested on: SOX2 promoter methylation; experiment: Methylation-specific qPCR of SOX2 promoter; assay type: cell-based, human; settings: for SOX2 promoter methylation, inhibitor alone: 5 μM
Protocol: Genomic DNA was extracted, and bisulfite conversion was performed on 500 ng of gDNA using the MethylAmp DNA modification kit according to manufacturer's instructions. Relative quantitative RT-PCR (qPCR) was performed with methylation-specific and unmethylation-specific primers (see Table 3).

[3] = tested on: Phosphorylated SMAD1 (pSMAD1); experiment: SMAD1 phosphorylation (Western blot); assay type: cell-based, human
[4] = tested on: SOX2 promoter; experiment: Chromatin immunoprecipitation (ChIP) at SOX2 promoter regions; assay type: cell-based, human; settings: for SMAD3 occupancy at p1, p3, p4, p5, p6 (ChIP): 1 h treatment
Protocol: ChIP was carried out using a modified version of a previously described protocol (Medeiros et al., 2009). Cells were grown to 80% confluency in 150 mm culture dishes. Cells were fixed at room temperature in 1% Paraformaldehyde solution (dilute 8% PFA in serum free media to get 1%) and rocked for 10 minutes. 10×Glycine was added to the plate and allowed to sit for 5 minutes at room temperature. Cells were scraped down and cell suspension were transferred to a cold centrifuge tube for centrifugation at 720 RCF at 4° C. for 10 minutes. Cells were rinsed with 1X Phosphate buffer saline and centrifugation repeated. Cell pellet was next resuspended in lysis buffers described in (Medeiros et al., 2009) to obtain nuclei pellet. This was followed by chromatin sonication, using QSonica sonicator (model CL-188) for four cycles (30% amplitude for 15 secs ON and 30 secs OFF) to obtain DNA fragments with a length from 150 to 300 bp. 1/10th of the supernatant was stored as input control. ChIP was performed using Protein A magnetic beads (Dynabeads, Invitrogen #10001D) to couple […] ChIP-grade antibodies for SMAD1, SMAD3, H3K27me3, H3K4me3, or rabbit IgG antibody overnight at 4 °C. DNA was purified using the PureLink Quick PCR Purification kit (Thermo Fisher Cat #: K310001) and enrichment of DNA fragments analyzed via relative quantitative RT-PCR (qPCR) using ChIP primers (see Table 2) to specific locations. Negative and positive control regions were included in all analysis.

[5] = tested on: HEYT30 cells; experiment: Paclitaxel cell viability with BMP9 in HEYT30 (FIG. 10, 13A); assay type: cell-based; settings: Homo sapiens, read-out: paclitaxel IC50 concentration
[6] = tested on: HEYT30 cells; experiment: CellTiter Glo 3D cell viability assay, paclitaxel with BMP9; settings: read-out: paclitaxel IC50 concentration, 3D conditions
[7] = tested on: HEY-T30 cells; experiment: Flow cytometry, Annexin V / PI apoptosis; assay type: cell-based, human; settings: 3D, 48 hours; 10 nM BMP9, 300 nM paclitaxel or combination
Protocol: 700,000 cells were seeded in 60 mm poly-hema coated culture dishes, followed by incubation with 300 nM paclitaxel and 10 nM BMP9 alone or in simultaneous combination for 48 hours. Cells were centrifuged and resuspended in 1×binding buffer, followed by incubation with Annexin V and PI according to the manufacturer's procedure manual. The stained cell suspension was added to FACS tubes containing 200 μl 1×binding buffer and measured by BD LSRFortessa flow cytometer. The data were analyzed using BD FACSDiva (Becton Dickinson, NJ, USA) software. Annexin V-positive and PI-negative cells were considered to be in the early apoptotic phase, Annexin V-negative and PI-positive cells were considered to be in the necrosis phase, cells having positive staining for both Annexin-V and PI were considered to undergo late apoptosis and cells negative for Annexin V and PI were considered to be live cells.

[8] = tested on: OC cells (PA1, OVCA420, and OVCAR3); experiment: Live-dead analysis of anchorage-independent spheroids, TGF-β1/activin A; assay type: cell-based, human; settings: 1 nM TGFβ1, 10 nM activin, 24 hrs
Protocol: (§1) For Live/Dead analysis under anchorage independence, 1,000 cells were seeded in 96-well hydrogel-coated ultra-low attachment (ULA) plates (Corning #4515) for times indicated. Growth factor treatment was done under low serum 2.5% FBS condition (Cells were plated in 10% FBS to allow spheroid formation before beginning treatment). Cells were then stained with 2 μM Calcein-AM and 4 μM Ethidium-homodimer for 30 min before imaging. z-stacked images were obtained using the Zeiss LSM700 Confocal microscope (Microscopy and Flow Cytometry Core, University of South Carolina) and NIKON A1 Confocal microscope (UAB High Resolution Imaging Facility). Fluorescent quantification was performed using ImageJ Fiji software to calculate the Corrected Total Cell Fluorescent (CTCF)=Integrated Density−(Area of selected cell×Mean fluorescence of background readings) per spheroid.

[9] = tested on: 1-kb SOX2 promoter reporter; experiment: pGL3-SOX2 promoter-reporter luciferase assay in HEK293 cells; assay type: cell-based, human
Protocol: HEK293 cells were transfected with the pGL3-SOX2 promoter-luciferase reporter plasmid construct and SV40-renilla for 24h. […] According to the manufacturer's instruction, cells were collected and lysed in […] passive lysis buffer. To measure luciferase activity, […] of lysate was added to […] of dual Luciferase Assay Reagent, and luminescence was quantitated using a luminometer (Biotek).

[10] = tested on: PA1 cells; experiment: Live/Dead analysis under anchorage independence (anoikis), PA1 cells; assay type: cell-based, human; settings: 10 nM for 24 hrs after 48 hours anchorage independence
Protocol: as §1

Nc1ncn([C@@H]2O[C@H](CO)[C@@H](O)[C@H]2O)c(=O)n1 [50-Aza, 50-azacytidine]
SOX2 mRNA downregulation by BMP9 ([1]; PA1, 5 μM with 10 nM rhBMP9): suppressed
SOX2 mRNA, inhibitor alone ([1]; SKOV3 cells, 5 μM): concomitant increase
BMP9-induced SOX2 transcriptional repression ([1]; SKOV3 cells, 5 μM with 10 nM rhBMP9): repressed
BMP9-induced SOX2 promoter methylation ([2]; PA1, 5 μM 48 h pretreatment, then rhBMP9 24 h): abrogated
SOX2 promoter methylation, inhibitor alone ([2]; PA1 cells): minimal effect
SOX2 promoter methylation, inhibitor alone ([2]; SKOV3 cells, 48 hours): suppressed SOX2 promoter methylation significantly

c1cc(-c2cnn3cc(-c4ccc(OCCN5CCCCC5)cc4)cnc23)ccn1 [DM, Dorsomorphin]
recovery in SOX2 levels in the presence of BMP9 ([1]; PA1, 5 μM pretreatment 1 h, then rhBMP9 24 hours): 34.3%
recovery in SOX2 repression by BMP2 [1]: 23%

CC[C@H](C)n1cc(C)c2c(C(=O)NCc3c(C)cc(C)[nH]c3=O)cc(-c3ccc(N4CCNCC4)nc3)cc21 [GSK126]
SOX2 repression by BMP9 ([1]; 5 μM GSK126, multiple cell lines): abrogated

c1ccc2c(-c3cnn4cc(-c5ccc(N6CCNCC6)cc5)cnc34)ccnc2c1 [LDN193189]
BMP2- and BMP9-induced SMAD1/5 phosphorylation ([3]; 0.8 μM LDN193189, PA1 and OVCAR3): Full inhibition
increase of SOX2 protein levels at baseline in the absence of exogenous ligand ([1]; 0.8 μM LDN193189, PA1): 33
effect on SOX2 repression by BMP9 [1]: blocked
effect on SOX2 repression by BMP2 [1]: blocked
BMP9-induced H3K27me3 occupancy on the SOX2 promoter (ChIP) ([4]; PA1, rhBMP9 + LDN193189): significantly reduced

CC(C)C[C@@H](C=O)NC(=O)[C@H](CC(C)C)NC(=O)[C@H](CC(C)C)NC(=O)OCc1ccccc1 [MG132] (Cbz-Leu-Leu-Leu-aldehyde)
effect on BMP's ability to repress SOX2 ([1]; PA1, 0.5 μM MG132 1 hour, then rhBMP2/9): No effect

COc1ccc(-c2cnc3c(-c4cccc5ncccc45)cnn3c2)cc1 [ML347]
BMP9-induced phosphorylation of SMAD1 ([3]; 3 μM ML347): completely suppressed
suppression of BMP2-induced SMAD1 phosphorylation ([3]; 3 μM ML347): 40%
baseline SOX2 levels in the absence of exogenous ligand ([1]; 3 μM ML347, PA1): increased
effect on SOX2 repression by BMP9 [1]: abrogated
recovery in SOX2 repression by BMP2 [1]: 72%

NC(=O)c1ccc(-c2nc(-c3ccc4c(c3)OCO4)c(-c3ccccn3)[nH]2)cc1 [SB431542]
pSMAD1 in response to BMP2 and -9 ([3]; 5 μM inhibitor): no effects
TGF-β1-induced SOX2 increases ([1]; 5 μM SB431542 1 h, then 400 pM TGF-β1 24 h): suppressed
effect on SOX2 repression by BMP9 [1]: did not significantly alter
effect on SOX2 repression by BMP2 [1]: did not alter
TGF-β1-induced H3K4me3 enrichment (ChIP) ([4]; PA1, TGF-β1 + SB431542): abrogated

CC(=O)O[C@H]1C(=O)[C@@]2(C)[C@H]([C@H](OC(=O)c3ccccc3)[C@]3(O)C[C@H](OC(=O)[C@H](O)[C@@H](NC(=O)c4ccccc4)c4ccccc4)C(C)=C1C3(C)C)[C@]1(OC(C)=O)CO[C@@H]1C[C@@H]2O [paclitaxel]
IC50 ([5]; 24-hour pretreatment 1 nM BMP9, then combination 48 hours): 90.8 nM
IC50 ([5]; 24-hour pretreatment 5 nM BMP9, then combination 48 hours): 22.6 nM
IC50 ([5]; 24-hour pretreatment 10 nM BMP9, then combination 48 hours): 4.1 nM
IC50 ([5]; 48 h, simultaneous 1 nM BMP9, 48 hours): 91.7 nM
IC50 ([5]; 48 h, simultaneous 5 nM BMP9, 48 hours): 89 nM
IC50 ([5]; 48 h, simultaneous 10 nM BMP9, 48 hours): 73 nM
IC50 ([5]; 48 h, untreated control (no BMP9), simultaneous series, 48 hours): 107 nM
IC50 ([5]; untreated control (no BMP9), 24-hour pretreatment series): 113 nM
IC50 ([6]; 24-hour pretreatment 5 nM BMP9): 286 nM
IC50 ([6]; 24-hour pretreatment 10 nM BMP9): 211 nM
apoptosis in cells [7]: 12.8%

TGF-β1: transforming growth factor β1 ligand
live/dead ratio of spheroids [8]: increased
SOX2 protein and mRNA expression [1]: increased
luciferase activity of SOX2 promoter reporter ([9]; TGF-β1 400 pM, 24 h): increased
SMAD3 occupancy at p1, p3, p4, p5, p6 (ChIP) [4]: consistent SMAD3 enrichment
H3K4me3 at SMAD3 motifs p1, p3, p4, p5, p6 (ChIP) ([4]; PA1, 1-h TGF-β1): enrichment

activin A: activin A, TGF-β family member
SOX2 protein and mRNA expression [1]: increased
luciferase activity of SOX2 promoter reporter ([9]; 10 nM activin A, 24 hours): increased
SMAD3 occupancy at p1, p3, p4, p5, p6 (ChIP) [4]: occupied by SMAD3

B1: BMP4: recombinant human BMP4, BMP ligand (protein, UniProt P12644 293-408, looked up)
Bone morphogenetic protein 4: SPKHHSQRARKKNKNCRRHSLYVDFSDVGWNDWIVAPPGYQAFYCHGDCPFPLADHLNSTNHAIVQTLVNSVNSSIPKACCVPTELSAISMLYLDEYDKVVLKNYQEMVVEGCGCR
decrease of live-to-dead cell ratio [10]: 1.93
SOX2 protein and RNA levels [1]: downregulation

B2: BMP10: recombinant human BMP10, highest sequence homology to BMP9 (protein, UniProt O95393 317-424, looked up)
Bone morphogenetic protein 10: NAKGNYCKRTPLYIDFKEIGWDSWIIAPPGYEAYECRGVCNYPLAEHLTPTKHAIIQALVHLKNSQKASKACCVPTKLEPISILYLDKGVVTYKFKYEGMAVSECGCR
activation of SMAD1/5 [3]: failed to activate
anoikis [10]: did not alter
SOX2 protein and RNA levels [1]: did not alter
